Patent US5312833A, “Method of inhibiting tumor growth using xanthocillin X dimethylether” (Meiji Seika Kaisha, Ltd., priority 1990, dated 1994)
Values after ≈ are worked out from the molar mass of the structure shown.

What was measured:
B16 = test: In vitro cytotoxicity, MTT assay, B16; assay type: cell-based; settings: Mus musculus, 72 h, 3 days incubation, read-out: IC50 (drug concentration to kill 50% of the cells)
Experimental: (§1) The effect of a preparation containing xanthocillin X dimethylether on cancer cells was determined by an in vitro test. For a medium, the Modified Dulbecco Minimum Essential Medium combined with 10% fetal serum was placed in a culture dish. The cytotoxic activity was observed on various cancer cells (set forth in Table 1 below) that were serially cultured in this medium in a CO2 incubator. First, the respective cancer cells were suspended in the aforementioned culture medium at a concentration of 5×10^4 cells/ml. Then 135 μl of the suspension was added to a micro-titer plate having 96 wells. Next, 15 μl of the test compound solution was added, and the plates were incubated in CO2 for 3 days. The survival of the cells after the incubation period was determined by the MTT assay (Igaku no Ayumi, Vol. 128, pages 733-735, 1984).

Meth-A = test: In vitro cytotoxicity, MTT assay, Meth-A; assay type: cell-based, murine; settings: Mus musculus, 72 h, 3 days incubation, read-out: IC50 (drug concentration to kill 50% of the cells)
Experimental: as §1

prostaglandin synthesis = settings: literature; cited from earlier work
P388 = test: In vitro cytotoxicity, MTT assay, P388; assay type: cell-based; settings: Mus musculus, 72 h, 3 days incubation, read-out: IC50 (drug concentration to kill 50% of the cells)
Experimental: as §1

Meth-A solid tumor = test: Suppression of growth of Meth-A solid tumor in Balb/c mice; assay type: in vivo
Experimental: 0.1 ml of 10^7 cells/ml of murine fibrosarcoma Meth-A (ascites) were inoculated subcutaneously into Balb/c mice (6-week-old, females) and the test agent was injected intraperitoneally into the mice on the next day.
The test compound had been thoroughly pulverized in a mortar, suspended in 1% carboxymethylcellulose (CMC), and mixed well using ultrasonic. The test compound was administered once daily for 4 consecutive days. Following 2 weeks of rearing, the tumor on the back was excised and its weight was recorded. The percentage by which tumor development was suppressed was computed as follows: {(tumor weight of the control-tumor weight of the test group)/tumor weight of the control group}×100.

[1] = system: Lewis carcinoma of the lung; test: In vitro cytotoxicity, MTT assay, Lewis carcinoma of the lung; assay type: cell-based; settings: 72 h, 3 days incubation, read-out: IC50 (drug concentration to kill 50% of the cells)
Experimental: as §1

[2] = Acute toxicity in Balb/c mice; settings: mouse, in vivo, ip, injected into the peritoneal cavity, 7-week-old females, survival over 2 weeks, suspension in 1% CMC
Experimental: Xanthocillin X dimethylether (by way of the same suspension as used in Example 3) was injected into the peritoneal cavity of Balb/c mice (7-week-old females). The animals were reared for the next 2 weeks and their survival was recorded.

cancer cells = test: In vitro cytotoxicity on various cancer cells (MTT assay), summary; assay type: cell-based; settings: as indicated in Table 1
Experimental: as §1

In the case of `[C-]#[N+]C(=Cc1ccc(OC)cc1)C(=Cc1ccc(OC)cc1)[N+]#[C-]` [xanthocillin X dimethylether], the IC50 (B16) is listed as 0.45 µg/mL (≈ 1.42 µM), the IC50 (Meth-A) is listed as 0.71 µg/mL (≈ 2.24 µM) and the “inhibition of prostaglandin synthesis (in words)” value (prostaglandin synthesis) is listed as “specific inhibitor of prostaglandin synthesis”. The IC50 (P388) was 0.67 µg/mL (≈ 2.12 µM), the “Percentage suppression of tumor growth” value (Meth-A solid tumor; 30 mg/kg/day intraperitoneally, once daily for 4 consecutive days, after 2 weeks, computed from tumor weights versus control (1% CMC)) was 88.5 Percentage and the Tumor weight (Meth-A solid tumor; 30 mg/kg/day intraperitoneally, once daily for 4 consecutive days, tumor excised after 2 weeks, mean ± standard deviation, control 0.96 ± 0.60 g) was 0.11 ± 0.10 g. For the same molecule, the “suppression of growth of Meth-A solid tumors (in words)” value (Meth-A solid tumor; as shown in Table 2) was “markedly suppressed the growth of Meth-A solid tumors”, the IC50 [1] was 0.46 µg/mL (≈ 1.45 µM) and the LD50 at 336 h [2] was greater than 120 mg/kg. The “cytotoxicity to a series of cancer cells (in words)” value (cancer cells) was “cytotoxic to a series of cancer cells”.
